Source: patent US8541426B2, “Pharmaceutical compositions and methods of treating dry eye disorders” (Pfizer Inc., priority 2007, dated 2013)

What was measured:
dry-induced C57 mice = assay: Induced dry eye mouse model (scopolamine and fans), tear production; assay type: in vivo; settings: for tear production versus normal tear production values: after 4 days of treatment, induced dry eye mice
Description: An injection was prepared comprising 2.5 mg/ml scopolamine (sigma) in injectable saline (1-1.5 ml per animal). In normal C57 mice (200-250) ul of scopolamine was injected four times every 2.5 hrs in alternating hind quarters. The mice were placed in special cages (with holes in front and back) and placed in a hood. Fans were placed in front of each cage, and turned on for 16 hours over night for five days.
Measurements were taken daily.
As with Examples 4 and 5 above, animals were treated with drug or vehicle at 1 μl, once a day for 2 weeks.

MRL/Ipr (Dry Eye) Mice = tested on: MRL/Ipr (Dry Eye) Mice
Description: To study the level of tear production over time, 10 MRL/Ipr mice and 5 of the age-matched C57 Black/6 control mice at 8 weeks of age were purchased from Jackson Laboratory (Bar Harbor, Me., USA). The mouse strain MRL/Ipr has a mutation which predisposes it to dry eye similar to Sjogren's Syndrome.
Tear production was measured with cotton thread (Quick Zone®) held with forceps and applied to the ocular surface at the lateral canthus for 15 to 30 seconds. Wetting of the thread was measured in millimeters.
C57 mice also received vehicle. Tear volume was measured on days 2, 3, and 6.
Tear measurement was done using phenol red impregnated thread (Quick Zone®) and baseline measurement was performed before each drug application. Drugs or vehicles were applied at 2 μl, two times a day.
Vehicle-treated normal C57black/6 and MRL/Ipr dry eye mice were used as normal control and dry eye control, respectively.
Control animals included normal C57Black/6 mice, and MRL/Ipr mice, treated with PBS vehicle and MRL/Ipr mice treated with Refresh Endura® (vehicle for Restasis) (5-10 mice/group).
As with Example 4 above, vehicle-treated normal C57black/6 and MRL/Ipr dry eye mice (5-10 mice/group) were used as normal control and dry eye control, respectively. […] Treatment for Formulation 1 was carried for two weeks, at 2 μl, twice a day.

[1] = CP-690550 0.01% vs Restasis (cyclosporine 0.05%), twice a day for 30 days, MRL/Ipr mice (FIG. 3)

Q: Which “tear production versus normal tear production values” (dry-induced C57 mice; 0.003% in Formulation 5, once a day) does the source give for `C[C@@H]1CCN(C(=O)CC#N)C[C@@H]1N(C)c1ncnc2[nH]ccc12` [CP0690550, 3-{(3R,4R)-4-Methyl-3-[methyl-(7H-pyrrolo[2,3-d]pyrimidin-4-yl)-amino]-piperidin-1-yl}-3-oxo-propionitrile] here?
A: approximated normal tear production values

Q: What about the “tear production versus normal tear production values” (dry-induced C57 mice; 0.01% (w/w) in Formulation 3, once a day) of the same compound?
A: approximated normal tear production values

Q: And the “increase in tear production” value (dry-induced C57 mice; Formulations 3 and 5, 1 μl once a day, at 2 days of treatment, induced dry eye mice (FIGS. 7 and 8))?
A: significant increase

Q: What about the “tear production comparable to normal: within x% of tear production by C57 normal mice” value (MRL/Ipr (Dry Eye) Mice; 0.01% (w/w) in Formulation 1 vehicle, twice a day, within 8 days, MRL/Ipr mice (FIG. 4)) of the same compound?
A: 5 to 10%

Q: And the “increase of tear production volume” value (MRL/Ipr (Dry Eye) Mice; 0.1% (w/w) twice a day, topical, MRL/Ipr mice, within the first 2 days of application (FIG. 2))?
A: significantly increase

Q: What about the “response rate as compared to Restasis” value (MRL/Ipr (Dry Eye) Mice; [1]) of the same compound?
A: much faster response rate

Q: And the “volume of tear production over Restasis” value (MRL/Ipr (Dry Eye) Mice; [1])?
A: significant improvement

Q: What about the “improvement in tear production” value (MRL/Ipr (Dry Eye) Mice; all comparisons (Formulations 1, 3 and 4 vehicle, FIGS. 4-6), 2 days after treatment, MRL/Ipr mice) of the same compound?
A: significant improvement

Q: And the “tear production volume comparable to normal: within x% of tear production by normal C57 mice” value (MRL/Ipr (Dry Eye) Mice; ultimately reached, MRL/Ipr mice, FIGS. 3 and 4)?
A: 5 to 10%
